ChEMBL document CHEMBL5108044, “Discovery of a Novel Potent STAT3 Inhibitor HP590 with Dual p-Tyr705/Ser727 Inhibitory Activity for Gastric Cancer Treatment” (J Med Chem, 2022)
Calls of active or inactive are those of the source. The calls are words filed in the database; no cut-off is given here.

Experiments:
MKN-45 [1] = test: Inhibition of mitochondrial respiration in STAT3 knockdown human MKN-45 cells assessed as basal oxygen consumption rate incubated for 80 mins […]; type: functional, cell-based
[2] = biological target: T1, Signal transducer and activator of transcription 3 (Homo sapiens, UniProt P40763); test: Inhibition of STAT3 phosphorylation at Ser727 residue in human MKN-45 cells incubated upto 24 hrs by Western blotting analysis; type: cell-based; conditions: dose <= 40.0 nM, DDE = dose-dependent effect
[3] = biological target: T1, Signal transducer and activator of transcription 3; test: Inhibition of phosphorylated STAT3 nuclear translocation at Tyr705 residue in human MKN-45 cells measured at 5 to 40 nM by immunoblotting analysis; type: cell-based; conditions: dose 5-40 nM
[4] = Toxicity in […] mouse xenografted with human MKN-45 cells assessed as kidney damage at 25 to 50 mg/kg, po qd administered for 5 weeks by H and E staining based analysis; type: organism-based; conditions: in vivo, 840 h, dose 25-50 mg/kg
MKN-45 [5] = test: Induction of apoptosis in human MKN-45 cells assessed as necrotic cells 10 nM incubated for 48 hrs by FITC-annexin V/propidium iodide staining based flow cytometry (reference value: 10.3%); type: functional
[6] = biological target: Tyrosine-protein kinase JAK1 (Homo sapiens, UniProt P23458); test: Inhibition of JAK1 (unknown origin)
AGS [7] = test: Induction of apoptosis in human AGS cells assessed as early apoptic cells 10 nM incubated for 48 hrs by FITC-annexin V/propidium iodide staining based flow cytometry (reference value: 0.55%); type: functional
[8] = biological target: T1, Signal transducer and activator of transcription 3; test: Inhibition of STAT3 in human MGC-803 cells assessed as downregulation of c-Myc expression incubated up to 24 hrs by western blot analysis; type: cell-based; conditions: dose <= 40.0 nM, DDE = dose-dependent effect
Cytochrome P450 2C19 = Cytochrome P450 2C19 (Homo sapiens, UniProt P33261); test: Inhibition of CYP2C19 in human liver microsome; type: ADME, microsomes
Cytochrome P450 3A4 = Cytochrome P450 3A4 (Homo sapiens, UniProt P08684); test: Inhibition of CYP3A4 in human liver microsome; type: ADME, microsomes
[9] = AUC (0 to t) in ICR mouse plasma at 10 mg/kg, po measured up to 24 hrs by LC-MS/MS analysis; type: ADME, organism-based; design: time < 24 hrs, dose 10 mg/kg, route po
[10] = biological target: T1, Signal transducer and activator of transcription 3; test: Binding affinity to human STAT3 (127 to 722 residues) assessed as dissociation constant by MST assay
[11] = biological target: T1, Signal transducer and activator of transcription 3; test: Inhibition of STAT3 phosphorylation at Ser727 residue in human MGC-803 cells upto 40 nM incubated upto 24 hrs by Western blotting analysis; type: cell-based
MKN-45 [12] = test: Antitumor activity against human MKN-45 cells xenografted in po dosed BALB/c nude mouse assessed as decrease in tumor volume measured for 5 weeks; type: functional, organism-based; conditions: dose 25-50 mg/kg, DDE = dose-dependent effect
MKN-45 [13] = test: Inhibition of mitochondrial respiration in human MKN-45 cells assessed as maximal oxygen consumption rate at 1 to 100 nM incubated for 1 hr by Seahorse XF24 extracellular flux analyzer; type: functional, cell-based; conditions: dose 1-100 nM
[14] = Cmax in ICR mouse plasma at 10 mg/kg, po measured up to 24 hrs by LC-MS/MS analysis; type: ADME, organism-based; design: dose 10 mg/kg, time < 24 hrs, route po
[15] = biological target: T1, Signal transducer and activator of transcription 3; test: Inhibition of STAT3 in human GES1cells assessed as downregulation of c-myc expression at 10 to 40 nM incubated for 24 hrs by RT-PCR analysis; type: cell-based; conditions: GES1, dose 10-40 nM
AGS [16] = test: Induction of apoptosis in human AGS cells assessed as late apoptic cells 20 nM incubated for 48 hrs by FITC-annexin V/propidium iodide staining based flow cytometry (reference value: 9.56%); type: functional
Cytochrome P450 2C9 = Cytochrome P450 2C9 (Homo sapiens, UniProt P11712); test: Inhibition of CYP2C9 in human liver microsome; type: ADME, microsomes
[17] = biological target: T1, Signal transducer and activator of transcription 3; test: Inhibition of STAT3 in human MKN-45 cells assessed as downregulation of Survivin expression at 10 to 40 nM incubated for 24 hrs by RT-PCR analysis; type: cell-based; conditions: dose 10-40 nM
[18] = Toxicity in BALB/c nude mouse xenografted with human MKN-45 cells assessed as liver damage at 25 to 50 mg/kg, po qd administered for 5 weeks by H and E staining based analysis; type: organism-based; conditions: in vivo, 840 h, dose 25-50 mg/kg
[19] = biological target: T1, Signal transducer and activator of transcription 3; test: Inhibition of STAT3 in human MKN-45 cells assessed as downregulation of c-Myc expression up to 40 nM by western blot analysis; type: cell-based; conditions: time <= 24.0 hrs, DDE = dose-dependent effect
MKN-45 [20] = test: Induction of apoptosis in human MKN-45 cells assessed as late apoptic cells 10 nM incubated for 48 hrs by FITC-annexin V/propidium iodide staining based flow cytometry (reference value: 17.9%); type: functional
AGS [21] = test: Induction of apoptosis in human AGS cells assessed as necrotic cells 20 nM incubated for 48 hrs by FITC-annexin V/propidium iodide staining based flow cytometry (reference value: 2.70%); type: functional
[22] = Elimination half life in ICR mouse plasma at 1 mg/kg, iv measured up to 24 hrs by LC-MS/MS analysis; type: ADME, organism-based; conditions: read-out: beta t1/2 (converted)
AGS [23] = test: Antiproliferative activity against human AGS cells assessed as reduction in cell viability incubated for 72 hrs by MTS assay; type: functional, cell-based
MGC-803 = test: Antiproliferative activity against human MGC-803 cells assessed as cell viability incubated for 72 hrs by MTS assay; type: functional, cell-based; conditions: dose <= 100.0 nM, DDE = dose-dependent effect
[24] = biological target: T1, Signal transducer and activator of transcription 3; test: Inhibition of STAT3 phosphorylation at Ser727 residue in human AGS cells upto 40 nM incubated upto 24 hrs by Western blotting analysis; type: cell-based
[25] = Toxicity in […] mouse xenografted with human MKN-45 cells assessed as liver damage at 25 to 50 mg/kg, po qd administered for 5 weeks by H and E staining based analysis; type: organism-based; conditions: in vivo, 840 h, dose 25-50 mg/kg
[26] = biological target: T1, Signal transducer and activator of transcription 3; test: Inhibition of STAT3 in human MKN-45 cells assessed as downregulation of Bcl2 expression at 10 to 40 nM incubated for 24 hrs by RT-PCR analysis; type: cell-based; conditions: dose 10-40 nM
MKN-45 [27] = test: Inhibition of colony formation in STAT3 knockdown human MKN-45 cells assessed as reduction in number of colonies incubated for 5 to 7 days by crystal violet staining based assay; type: functional, cell-based; conditions: time 5-7 day
[28] = biological target: Mitogen-activated protein kinase 3 (Homo sapiens, UniProt P27361); test: Inhibition of ERK1 (unknown origin)
[29] = Toxicity in BALB/c nude mouse xenografted with human MKN-45 cells assessed as heart damage at 25 to 50 mg/kg, po qd administered for 5 weeks by H and E staining based analysis; type: organism-based; conditions: in vivo, 840 h, dose 25-50 mg/kg
[30] = biological target: T1, Signal transducer and activator of transcription 3; test: Inhibition of STAT3 phosphorylation at Ser727 residue in human MGC-803 cells upto 40 nM by Western blotting analysis; type: cell-based; conditions: time <= 24.0 hrs, TDE = time-dependent effect
[31] = biological target: T1, Signal transducer and activator of transcription 3; test: Inhibition of STAT3 phosphorylation at Tyr705 residue in human MGC-803 cells upto 40 nM incubated upto 24 hrs by Western blotting analysis; type: cell-based
[32] = Antiproliferative activity against human HPNE cells assessed as cell viability measured upto 1 uM incubated for 72 hrs by MTS assay; type: toxicity, cell-based; conditions: htert-hpne
[33] = biological target: T1, Signal transducer and activator of transcription 3; test: Inhibition of STAT3 in human MKN-45 cells assessed as downregulation of c-Myc expression incubated up to 24 hrs by western blot analysis; type: cell-based; conditions: dose <= 40.0 nM, DDE = dose-dependent effect

T1 sequence (P40763 whole entry): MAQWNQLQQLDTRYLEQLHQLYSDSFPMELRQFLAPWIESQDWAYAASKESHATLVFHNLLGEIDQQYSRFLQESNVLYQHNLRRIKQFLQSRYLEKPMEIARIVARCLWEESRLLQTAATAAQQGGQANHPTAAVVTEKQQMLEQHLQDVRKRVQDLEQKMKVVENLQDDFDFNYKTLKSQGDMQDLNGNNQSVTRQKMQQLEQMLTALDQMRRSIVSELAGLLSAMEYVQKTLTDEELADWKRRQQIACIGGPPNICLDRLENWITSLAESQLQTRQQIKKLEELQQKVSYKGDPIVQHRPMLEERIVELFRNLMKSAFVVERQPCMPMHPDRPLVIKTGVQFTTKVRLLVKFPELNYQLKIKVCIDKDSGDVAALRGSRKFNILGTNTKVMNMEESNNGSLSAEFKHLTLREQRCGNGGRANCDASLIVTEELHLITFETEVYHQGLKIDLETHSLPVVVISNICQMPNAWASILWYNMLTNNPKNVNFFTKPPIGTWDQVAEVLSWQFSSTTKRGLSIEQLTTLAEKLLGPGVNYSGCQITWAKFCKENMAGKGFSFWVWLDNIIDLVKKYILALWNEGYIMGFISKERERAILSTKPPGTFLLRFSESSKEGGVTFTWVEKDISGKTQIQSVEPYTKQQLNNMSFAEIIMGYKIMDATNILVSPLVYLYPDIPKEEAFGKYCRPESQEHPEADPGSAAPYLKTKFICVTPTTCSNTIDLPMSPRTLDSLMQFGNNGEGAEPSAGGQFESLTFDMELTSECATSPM
Cytochrome P450 3A4, sequence (P08684 whole entry): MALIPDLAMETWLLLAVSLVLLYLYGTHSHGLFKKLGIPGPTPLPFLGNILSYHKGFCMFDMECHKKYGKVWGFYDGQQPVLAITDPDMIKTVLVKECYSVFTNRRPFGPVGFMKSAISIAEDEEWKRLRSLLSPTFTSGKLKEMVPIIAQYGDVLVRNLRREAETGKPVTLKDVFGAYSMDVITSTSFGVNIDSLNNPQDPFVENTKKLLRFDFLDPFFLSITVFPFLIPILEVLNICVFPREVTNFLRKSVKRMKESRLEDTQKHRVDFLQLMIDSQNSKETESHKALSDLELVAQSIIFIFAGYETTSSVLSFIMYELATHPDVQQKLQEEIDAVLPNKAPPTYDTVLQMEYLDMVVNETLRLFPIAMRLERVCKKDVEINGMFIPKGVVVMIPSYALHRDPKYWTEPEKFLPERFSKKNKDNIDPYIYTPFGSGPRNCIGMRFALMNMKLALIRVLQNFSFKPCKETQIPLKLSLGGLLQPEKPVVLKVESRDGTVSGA
Cytochrome P450 2C19, sequence (P33261 whole entry): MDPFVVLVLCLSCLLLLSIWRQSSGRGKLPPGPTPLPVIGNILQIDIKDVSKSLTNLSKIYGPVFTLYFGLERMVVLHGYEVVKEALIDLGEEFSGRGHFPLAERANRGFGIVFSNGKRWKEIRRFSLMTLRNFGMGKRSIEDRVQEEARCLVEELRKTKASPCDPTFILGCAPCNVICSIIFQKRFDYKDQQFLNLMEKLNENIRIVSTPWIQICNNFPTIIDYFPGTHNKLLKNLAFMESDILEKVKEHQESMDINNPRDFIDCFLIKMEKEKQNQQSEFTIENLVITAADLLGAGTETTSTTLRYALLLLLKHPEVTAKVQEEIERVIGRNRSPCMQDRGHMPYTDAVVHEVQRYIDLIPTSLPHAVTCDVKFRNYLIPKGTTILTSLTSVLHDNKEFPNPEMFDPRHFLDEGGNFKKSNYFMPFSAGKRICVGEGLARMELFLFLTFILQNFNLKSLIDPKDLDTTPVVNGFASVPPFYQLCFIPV
Cytochrome P450 2C9, sequence (P11712 whole entry): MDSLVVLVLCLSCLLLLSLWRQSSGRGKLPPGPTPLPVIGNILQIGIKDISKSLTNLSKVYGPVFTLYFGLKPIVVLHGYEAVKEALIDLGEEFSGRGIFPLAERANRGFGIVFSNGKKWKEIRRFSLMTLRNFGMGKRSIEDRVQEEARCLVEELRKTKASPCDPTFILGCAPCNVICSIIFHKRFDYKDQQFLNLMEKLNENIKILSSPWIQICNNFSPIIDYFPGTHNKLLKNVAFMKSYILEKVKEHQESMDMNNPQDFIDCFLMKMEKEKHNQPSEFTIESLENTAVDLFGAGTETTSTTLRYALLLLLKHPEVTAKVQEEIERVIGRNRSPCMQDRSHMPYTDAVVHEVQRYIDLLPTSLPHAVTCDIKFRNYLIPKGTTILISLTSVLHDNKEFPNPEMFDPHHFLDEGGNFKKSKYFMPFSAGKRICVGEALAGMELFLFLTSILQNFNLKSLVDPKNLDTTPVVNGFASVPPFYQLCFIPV
Tyrosine-protein kinase JAK1, sequence (P23458 whole entry): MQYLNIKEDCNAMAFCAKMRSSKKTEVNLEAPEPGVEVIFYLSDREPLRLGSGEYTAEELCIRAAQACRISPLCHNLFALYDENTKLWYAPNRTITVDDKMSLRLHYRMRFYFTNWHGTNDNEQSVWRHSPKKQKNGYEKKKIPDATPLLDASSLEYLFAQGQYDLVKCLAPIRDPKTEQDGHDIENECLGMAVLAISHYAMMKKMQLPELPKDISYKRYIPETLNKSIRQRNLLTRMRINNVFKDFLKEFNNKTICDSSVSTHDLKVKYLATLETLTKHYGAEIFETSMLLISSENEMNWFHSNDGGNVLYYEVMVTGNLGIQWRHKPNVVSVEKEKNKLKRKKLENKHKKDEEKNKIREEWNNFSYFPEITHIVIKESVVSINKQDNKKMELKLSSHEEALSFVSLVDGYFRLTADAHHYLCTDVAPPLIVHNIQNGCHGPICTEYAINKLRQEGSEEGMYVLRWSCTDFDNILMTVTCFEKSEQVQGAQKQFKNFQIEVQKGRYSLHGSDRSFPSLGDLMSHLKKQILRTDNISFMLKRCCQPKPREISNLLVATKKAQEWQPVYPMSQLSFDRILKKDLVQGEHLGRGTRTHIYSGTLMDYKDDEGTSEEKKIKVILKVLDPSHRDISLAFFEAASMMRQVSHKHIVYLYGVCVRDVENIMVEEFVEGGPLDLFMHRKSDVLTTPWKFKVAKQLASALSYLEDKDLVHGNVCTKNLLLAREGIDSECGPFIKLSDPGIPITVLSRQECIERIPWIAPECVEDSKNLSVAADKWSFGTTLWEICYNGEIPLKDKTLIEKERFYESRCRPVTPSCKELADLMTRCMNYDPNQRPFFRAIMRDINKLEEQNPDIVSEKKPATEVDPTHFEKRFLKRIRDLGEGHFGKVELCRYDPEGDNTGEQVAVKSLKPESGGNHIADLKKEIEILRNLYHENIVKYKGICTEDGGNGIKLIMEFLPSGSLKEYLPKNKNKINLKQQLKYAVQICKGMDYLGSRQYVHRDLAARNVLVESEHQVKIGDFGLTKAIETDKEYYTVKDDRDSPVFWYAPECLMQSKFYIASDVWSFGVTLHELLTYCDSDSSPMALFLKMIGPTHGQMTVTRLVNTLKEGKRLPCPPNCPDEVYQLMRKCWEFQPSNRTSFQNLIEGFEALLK
Mitogen-activated protein kinase 3, sequence (P27361 whole entry): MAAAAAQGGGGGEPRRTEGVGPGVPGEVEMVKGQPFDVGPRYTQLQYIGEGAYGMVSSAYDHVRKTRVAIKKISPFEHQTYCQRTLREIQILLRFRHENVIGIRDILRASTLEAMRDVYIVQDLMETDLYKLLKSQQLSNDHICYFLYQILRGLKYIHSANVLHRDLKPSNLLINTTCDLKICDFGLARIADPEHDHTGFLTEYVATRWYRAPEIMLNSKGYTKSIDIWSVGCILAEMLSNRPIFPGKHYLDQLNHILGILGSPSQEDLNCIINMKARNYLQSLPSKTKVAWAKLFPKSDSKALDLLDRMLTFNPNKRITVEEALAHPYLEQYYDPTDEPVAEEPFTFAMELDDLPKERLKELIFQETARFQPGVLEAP

## O=C(c1ccc(-c2noc(-c3ccc(C(F)(F)F)cc3)n2)cc1)N1CCN(Cc2ccc(OCC(F)(F)F)cc2)CC1
MKN-45 [1]
  inhibition: Active
[2]
  inhibition: Dde
[3]
  inhibition: Active
[4]
  Activity: Non-Toxic
MKN-45 [5]
  Activity: 9.14%
[6]
  IC50: > 10 µM
AGS [7]
  Activity: 2.57%
[8]
  inhibition: Dde
Cytochrome P450 2C19
  IC50: 15.9 µM
Cytochrome P450 3A4
  IC50: > 50 µM
[9]
  AUC(0-t) at 24 h: 9400 ng·h/mL
[10]
  Kd: 0.0764 µM
[11]
  inhibition: 100%
MKN-45 [12]
  Activity: Dde
MKN-45 [13]
  inhibition: Active
[14]
  Cmax: 529 ng/mL
[15]
  inhibition: Active
AGS [16]
  Activity: 27.1%
Cytochrome P450 2C9
  IC50: 22.9 µM
[17]
  inhibition: Active
[18]
  Activity: Non-Toxic
[19]
  inhibition: Dde
MKN-45 [20]
  Activity: 19.6%
AGS [21]
  Activity: 0.8%
[22]
  half-life: 9.06 h
AGS [23]
  IC50: 0.0135 µM
MGC-803
  Activity: Dde
[24]
  inhibition: 100%
[25]
  Activity: Non-Toxic
[26]
  inhibition: Active
MKN-45 [27]
  inhibition: Active
[28]
  IC50: > 10 µM
[29]
  Activity: Non-Toxic
[30]
  inhibition: Tde
[31]
  inhibition: 100%
[32]
  Activity: Non-Toxic
[33]
  inhibition: Dde
